From paper PMC7390954 (Frontiers in Microbiology, 2020)
≈ marks a conversion by molar mass, not a printed value. Peptide text beside a SMILES is read from it.

How the values were obtained:
P. aeruginosa = settings: cited from earlier work
[1] = tested on: Pseudomonas aeruginosa UCBPP-PA14 wild-type
[2] = tested on: P. aeruginosa UCBPP-PA14 wild-type; assay type: cell-based, Pseudomonas aeruginosa; settings: standard twofold dilution MIC in 96-well plates
[3] = tested on: P. aeruginosa UCBPP-PA14 wild-type and tssK-2 mutant (1:1); assay type: cell-based, Pseudomonas aeruginosa

| Compound | MIC90 (P. aeruginosa) [mg/L] | MIC, BM2 (H) ([1]; BM2 with high (2 mM) Mg2+, MIC = no growth after 10 h) [mg/L] | MIC, BM2 (L) ([1]; BM2 with low (20 μM) Mg2+, 0.002% tween 80, 0.2% rhamnose, MIC = no growth after 10 h) [mg/L] | Sub-MIC (L) ([1]; BM2 with low (20 μM) Mg2+, concentration that slowed down growth by 30% compared to untreated control) [mg/L] | MIC, Without Spermidine [2] | MIC, With 4 mM Spermidine ([2]; 4 mM spermidine) | fate of tssK-2 mutant in 1:1 mixture with wild-type [3] |
| --- | --- | --- | --- | --- | --- | --- | --- |
| murepavadin | 2 | – | – | – | – | – | – |
| CC(C)CCCCC(=O)N[C@@H](CCN)C(=O)N[C@H](C(=O)N[C@@H](CCN)C(=O)N[C@H]1CCNC(=O)[C@H]([C@@H](C)O)NC(=O)[C@H](CCN)NC(=O)[C@H](CCN)NC(=O)[C@H](CC(C)C)NC(=O)[C@@H](Cc2ccccc2)NC(=O)[C@H](CCN)NC1=O)[C@@H](C)O [PMB, polymyxin B2] (HELM PEPTIDE1{[CC(C)CCCCC(=O)[*:2]].[Dab].T.[Dab].[Dab].[Dab].[dF].L.[Dab].[Dab].T}$PEPTIDE1,PEPTIDE1,5:R3-11:R2$$$V2.0) | – | 0.3 (≈ 0.252 µM) | 32 (≈ 26.9 µM) | 2 | 50 | >100 | out-competed |
